Assay results: publication PMC6615261, “Repurposing Azithromycin and Rifampicin Against Gram-Negative Pathogens by Combination With Peptidomimetics” (Frontiers in Cellular and Infection Microbiology, 2019)

Key:
K. pneumoniae ST258 [1] = settings: ST258, 24 h
Description: (§1) Minimal inhibitory concentrations (MICs) of peptidomimetics, antibiotics and their combinations were determined by broth microdilution according to the Clinical Laboratory Standards Institute performance standards (Clinical and Laboratory Standards Institute, [2013]). […] Since rifampicin and azithromycin mainly are used to treat infections with Gram-positive pathogens only CLSI clinical breakpoints were available for such bacteria. […] Potentiation of additional antibiotics by peptidomimetics was determined by using commercial 96-well plates containing varied concentrations of standard antibiotics (COMPAN1F; Trek Diagnostic Systems Inc.). The peptidomimetics were added immediately prior to inoculation with pathogen, and then MICs were determined as above. The MICs of peptidomimetic/antibiotic combinations were determined according to the method above, and the concentration ratios were selected based upon checkerboard results with 2:1 and 1:4 ratio of peptidomimetic with rifampicin or azithromycin, respectively. Minimal bactericidal concentrations (MBCs) were determined by using growth-curve assay plates. MIC plates were prepared as above, and then the plates were incubated at 37°C with continuous shaking. Growth was recorded at 10 min intervals as optical density (OD) at 600 nm during 24 h. At 24 h, for wells without growth, a sample was diluted 10-fold in sterile saline (0.9% sodium chloride) and plated onto MHA, following CLSI guidelines (Clinical and Laboratory Standards Institute, [1999]).

P. aeruginosa ATTC 27853 = settings: ATTC 27853, 24 h
Description: as §1

[2] = tested on: K. pneumoniae clinical isolates and reference strains; assay: MIC of fixed-ratio peptidomimetic 1-antibiotic combinations in clinical isolates and reference strains; format: cell-based, Klebsiella pneumoniae; settings: with rifampicin or azithromycin
Description: (§2) Bacterial strains used in this study comprise MDR clinical isolates of E. coli ST131 (Cerquetti et al., [2010]) and K. pneumoniae ST258 (Jana et al., [2017]), and American type culture collection (ATCC) strains: ATCC 25922 (E. coli), ATCC 13883 (K. pneumoniae), and ATCC 27853 (P. aeruginosa). Additional clinical isolates of E. coli, K. pneumoniae, and P. aeruginosa resistant to β-lactams (including carbapenems and cephalosporins) were provided by Laurent Poirel, Université de Fribourg, Switzerland. The following growth media was routinely used for bacterial culturing: Luria-Burtani (LB), cation-adjusted Mueller-Hinton agar (MHA) and broth (MHB II). All assays were performed in cation-adjusted MHA or MHB II. […]
(§3) Minimal inhibitory concentrations (MICs) of peptidomimetics, antibiotics and their combinations were determined by broth microdilution according to the Clinical Laboratory Standards Institute performance standards (Clinical and Laboratory Standards Institute, [2013]). […] Potentiation of additional antibiotics by peptidomimetics was determined by using commercial 96-well plates containing varied concentrations of standard antibiotics (COMPAN1F; Trek Diagnostic Systems Inc.). The peptidomimetics were added immediately prior to inoculation with pathogen, and then MICs were determined as above. […] Minimal bactericidal concentrations (MBCs) were determined by using growth-curve assay plates. […]

[3] = tested on: isolates of E. coli, K. pneumoniae and P. aeruginosa; assay: Induction of susceptibility in MDR isolates (summary over all three species); format: cell-based; settings: peptidomimetic 1 at ≤1 μM; 30 of 36 isolates
Description: as §2, §3

P. aeruginosa ATCC 27853 = assay: MIC by broth microdilution; format: cell-based, Pseudomonas aeruginosa; settings: peptidomimetic alone
Summary of the method: (§4)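 MICs were determined by CLSI broth microdilution. Combinations used fixed peptidomimetic:antibiotic ratios of 2:1 with rifampicin and 1:4 with azithromycin, and potentiation of other antibiotics was tested on COMPAN1F panels. MBCs came from OD600 growth curves over 24 h at 37°C, followed by plating of wells without growth onto MHA.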

[4] = tested on: E. coli clinical isolates and reference strains; assay: MIC of fixed-ratio peptidomimetic 1-antibiotic combinations in clinical isolates and reference strains; format: cell-based, Escherichia coli; settings: with rifampicin or azithromycin
Description: as §2, with “II. Antibiotics were purchased from Sigma-Aldrich and the peptidomimetic collection (Table S1) was curated and provided by Henrik Franzyk.” for “II.”
Minimal inhibitory concentrations (MICs) of peptidomimetics, antibiotics and their combinations were determined by broth microdilution according to the Clinical Laboratory Standards Institute performance standards (Clinical and Laboratory Standards Institute, [2013]). […] Potentiation of additional antibiotics by peptidomimetics was determined by using commercial 96-well plates containing varied concentrations of standard antibiotics (COMPAN1F; Trek Diagnostic Systems Inc.). The peptidomimetics were added immediately prior to inoculation with pathogen, and then MICs were determined as above. The MICs of peptidomimetic/antibiotic combinations were determined according to the method above, and the concentration ratios were selected based upon checkerboard results with 2:1 and 1:4 ratio of peptidomimetic with rifampicin or azithromycin, respectively. Minimal bactericidal concentrations (MBCs) were determined by using growth-curve assay plates. […] Growth was recorded at 10 min intervals as optical density (OD) at 600 nm during 24 h. […]

[5] = MTS/PMS cell viability assay; format: cell-based, mouse; settings: mouse, NIH 3T3 fibroblasts, 1 h exposure, read-out: Cytotoxicity NIH 3T3 EC50 ± SD
Summary of the method: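 NIH 3T3 and HepG2 cells at 80–90% confluence exposed 1 h to compound in serum-free medium, then MTS/PMS added for 1 h at 37 °C; absorbance read at 492 nm. Viability normalized to medium (0% death) and 0.2% SDS (100% death); EC50 from Hill fit constrained 0–100%, technical triplicates.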

MDR E. coli ST131 = assay: Screening of peptidomimetic-antibiotic combinations (growth / growth inhibition); format: cell-based, Escherichia coli; set-up: key to Growth in combination with RIF / Growth in combination with AZM: Growth (+); growth inhibition (–)
K. pneumoniae ST258 [6] = assay: MIC by broth microdilution; format: cell-based, Klebsiella pneumoniae
Summary of the method: as §4

Structure (SMILES): NCCCC[C@H](NC(=O)CCN(Cc1ccccc1)C(=O)[C@H](CCCCN)NC(=O)CCN(Cc1ccccc1)C(=O)[C@H](CCCCN)NC(=O)CCN(Cc1ccccc1)C(=O)[C@H](CCCCN)NC(=O)CCN(Cc1ccccc1)C(=O)[C@H](CCCCN)NC(=O)CCN(Cc1ccccc1)C(=O)[C@H](CCCCN)NC(=O)CCN(Cc1ccccc1)C(=O)[C@H](CCCCN)NC(=O)CCN(Cc1ccccc1)C(=O)[C@@H](N)CCCCN)C(=O)N(CCC(N)=O)Cc1ccccc1 [Peptidomimetic 1, H-(Lys-βNPhe)8-NH2]
- MBC (peptidomimetic alone) (K. pneumoniae ST258 [1]): 16 to 32 µM
- MIC (peptidomimetic alone) (K. pneumoniae ST258 [1]): 8 µM
- MBC (peptidomimetic alone) (P. aeruginosa ATTC 27853): 2 µM
- MIC (peptidomimetic alone) (P. aeruginosa ATTC 27853): 1 µM
- Peptidomimetic concentration required to induce susceptibility, three K. pneumoniae isolates [2]: 2 to 8 µM
- Isolates in which susceptibility to rifampicin and azithromycin was induced [3]: 83%
- MIC P. aeruginosa ATCC 27853 (P. aeruginosa ATCC 27853): 1 µM
- Peptidomimetic concentration in combination, most E. coli isolates [4]: 0.5 to 1 µM
- EC50 at 1 h [5]: 211 ± 26.8 µM
- Screening result with rifampicin (MDR E. coli ST131; 0.5 μM peptidomimetic + 0.5 μg/mL rifampicin): inhibit growth
- Screening result with azithromycin (MDR E. coli ST131; 0.5 μM peptidomimetic + 1 μg/mL azithromycin): prevented growth
- Growth in combination with AZM (MDR E. coli ST131; peptidomimetic 0.5 μM + azithromycin 1 μg/mL): –
- Growth in combination with RIF (MDR E. coli ST131; peptidomimetic 0.5 μM + rifampicin 0.5 μg/mL): –
- Selectivity Index (SI) K. pneumoniae ST258 (K. pneumoniae ST258 [6]; average of EC50 (HepG2, NIH 3T3) divided by MIC): (10)
- MIC K. pneumoniae ST258 (K. pneumoniae ST258 [6]; peptidomimetic alone): 16 µM
